Results on 22 compounds are retold here after ChEMBL document CHEMBL4680249, “Discovery of new LXRβ agonists as glioblastoma inhibitors” (Eur J Med Chem, 2020).

Calls of active or inactive are those of the source. The calls are words filed in the database; no cut-off is given here.

In data set [1] the test system is U-87 MG. Nature of the data set: Antiproliferative activity against human U87 cells overexpressing EGFR variant III measured after 7 days by CCK8 assay. The data set is classed as functional, cell-based, U-87MG ATCC. A general note: Tetrazolium assays rely on reduction of a dye to a coloured formazan, in cell work by metabolically active cells.
Data set [2] is described as follows: Toxicity in Balb/c nu/nu mouse xenografted with human U87 cells overexpressing EGFR variant III assessed as body weight loss at 50 mg/kg/day, ip for 15 days. In kind it is organism-based. As to conditions: in vivo, 360 h, time 15 day. In general terms: In xenograft studies the graft and the host belong to different species.
A short description of data set [3]: AUC (0 to t) in Sprague-Dawley rat at 10 mg/kg, iv measured after 24 hrs by LC-MS/MS analysis. The data set is classed as ADME, organism-based. Also on record: route intravenous, time 24 hrs, dose 10 mg/kg. To be noted: in vivo.
Data set [4] is described as follows: AUC (0 to infinity) in Sprague-Dawley rat at 10 mg/kg, iv measured after 24 hrs by LC-MS/MS analysis. In kind it is ADME, organism-based. On the set-up: route intravenous, dose 10 mg/kg, time 24 hrs. As to conditions: in vivo.
Data set [5] concerns U-87 MG. Nature of the data set: Antitumor activity against human U87 cells overexpressing EGFR variant III xenografted in Balb/c nu/nu mouse assessed as reduction in tumor size at 50 mg/kg/day, ip for 15 days by caliper method. The data set is classed as functional, organism-based. As to conditions: U-87MG ATCC, time 15.0 day.
A short description of data set [6]: Tmax in Sprague-Dawley rat at 10 mg/kg, iv measured after 24 hrs by LC-MS/MS analysis. The data set is classed as ADME, organism-based. To be noted: in vivo.
Data set [7] in a line: Effect on serum triglyceride level in Balb/c nu/nu mouse xenografted with human U87 cells overexpressing EGFR variant III at 50 mg/kg/day, ip for 15 days. In kind it is ADME, organism-based. To be noted: in vivo, 360 h, time 15 day.
Data set [8] can be described thus: Half life in Sprague-Dawley rat at 10 mg/kg, iv measured after 24 hrs by LC-MS/MS analysis. To be noted: in vivo. In kind it is ADME, organism-based.
Data set [9] can be described thus: Cmax in Sprague-Dawley rat at 10 mg/kg, iv measured after 24 hrs by LC-MS/MS analysis. The data set is classed as ADME, organism-based. Also on record: route intravenous, time 24 hrs, dose 10 mg/kg. As to conditions: in vivo.
Data set [10] can be described thus: MRT (infinity) in Sprague-Dawley rat at 10 mg/kg, iv measured after 24 hrs by LC-MS/MS analysis. As to conditions: in vivo. The data set is classed as ADME, organism-based.
Data set [11] relates to A 172. Nature of the data set: Antiproliferative activity against human A 172 cells measured after 7 days by CCK8 assay. As to conditions: A 172, 168 h.
For data set [12], the target named is Retinoic acid receptor RXR-alpha/oxysterols receptor LXR-alpha (Homo sapiens, UniProt Q13133).
Sequence of Retinoic acid receptor RXR-alpha/oxysterols receptor LXR-alpha (P19793 whole entry): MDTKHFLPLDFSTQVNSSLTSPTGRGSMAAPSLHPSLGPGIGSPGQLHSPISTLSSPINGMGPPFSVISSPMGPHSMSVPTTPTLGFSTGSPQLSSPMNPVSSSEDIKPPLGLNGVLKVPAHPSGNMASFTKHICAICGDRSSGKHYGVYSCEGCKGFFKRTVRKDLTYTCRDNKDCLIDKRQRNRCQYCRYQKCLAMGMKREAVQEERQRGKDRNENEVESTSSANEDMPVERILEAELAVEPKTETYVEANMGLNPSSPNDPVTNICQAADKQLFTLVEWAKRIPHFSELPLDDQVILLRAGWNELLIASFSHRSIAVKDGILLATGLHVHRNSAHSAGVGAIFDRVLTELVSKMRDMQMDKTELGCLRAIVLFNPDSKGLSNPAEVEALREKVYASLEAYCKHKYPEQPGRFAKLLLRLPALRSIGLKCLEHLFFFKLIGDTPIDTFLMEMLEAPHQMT
Sequence of Retinoic acid receptor RXR-alpha/oxysterols receptor LXR-alpha (Q13133 whole entry): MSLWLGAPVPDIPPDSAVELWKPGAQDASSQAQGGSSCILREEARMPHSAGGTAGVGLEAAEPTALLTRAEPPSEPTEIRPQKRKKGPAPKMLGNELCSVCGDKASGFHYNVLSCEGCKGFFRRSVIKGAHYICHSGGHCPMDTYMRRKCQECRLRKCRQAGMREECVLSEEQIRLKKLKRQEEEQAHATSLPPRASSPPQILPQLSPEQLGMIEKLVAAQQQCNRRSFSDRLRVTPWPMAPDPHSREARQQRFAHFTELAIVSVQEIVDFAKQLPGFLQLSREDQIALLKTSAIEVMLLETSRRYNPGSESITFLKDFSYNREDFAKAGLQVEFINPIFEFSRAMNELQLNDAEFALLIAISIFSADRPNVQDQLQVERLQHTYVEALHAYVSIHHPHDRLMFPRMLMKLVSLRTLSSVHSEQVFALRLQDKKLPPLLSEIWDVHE
Description: Agonist activity at human RXRalpha/LXRalpha expressed in HEK293 cells measured after 20 hrs by dual luciferase reporter gene assay
Data set [13] deals with Retinoic acid receptor RXR-alpha/oxysterols receptor LXR-beta (Homo sapiens, UniProt P55055).
Sequence of Retinoic acid receptor RXR-alpha/oxysterols receptor LXR-beta (P19793 whole entry): as the sequence (P19793 whole entry) above
Sequence of Retinoic acid receptor RXR-alpha/oxysterols receptor LXR-beta (P55055 whole entry): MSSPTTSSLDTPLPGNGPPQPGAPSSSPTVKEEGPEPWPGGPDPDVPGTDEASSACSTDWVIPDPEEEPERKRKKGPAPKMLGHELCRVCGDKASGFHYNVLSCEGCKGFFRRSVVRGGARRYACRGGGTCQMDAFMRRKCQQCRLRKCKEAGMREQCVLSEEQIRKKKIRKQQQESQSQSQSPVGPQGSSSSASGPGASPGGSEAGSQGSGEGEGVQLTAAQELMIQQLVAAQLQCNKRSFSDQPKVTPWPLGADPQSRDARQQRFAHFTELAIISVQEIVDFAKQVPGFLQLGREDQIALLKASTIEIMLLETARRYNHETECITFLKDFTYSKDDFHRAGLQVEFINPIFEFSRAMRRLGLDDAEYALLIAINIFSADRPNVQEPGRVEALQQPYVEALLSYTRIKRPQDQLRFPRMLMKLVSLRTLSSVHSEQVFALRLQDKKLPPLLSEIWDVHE
Description: Agonist activity at human RXRalpha/LXRbeta expressed in HEK293 cells measured after 20 hrs by dual luciferase reporter gene assay
Data set [14] has as its system U-251. Nature of the data set: Antiproliferative activity against human U-251 cells measured after 7 days by CCK8 assay. To be noted: U-251, 168 h.
Data set [15] is described as follows: Cytotoxicity against human HA1800 cells measured after 7 days by CCK8 assay. To be noted: ha1800, 168 h, time 7 day. The data set is classed as cell-based.
Data set [16] relates to U87. The experiment in a line: Agonist activity at LXR in human U87 cells overexpressing EGFR variant III assessed as up regulation of ABCG1 mRNA expression measured after 48 hrs by SYBR green staining based qRT-PCR analysis. The data set is classed as cell-based. As to conditions: filed as agonist.
Data set [17] concerns HEK-293T. Nature of the data set: Cytotoxicity against HEK293T cells measured after 7 days by CCK8 assay. As to conditions: human, 168 h, time 7 day. In kind it is cell-based.
In data set [18] the test system is U87. The experiment in a line: Agonist activity at LXR in human U87 cells overexpressing EGFR variant III assessed as up regulation of APOE mRNA expression measured after 48 hrs by SYBR green staining based qRT-PCR analysis. As to conditions: filed as agonist. In kind it is cell-based.
Data set [19] relates to U87. The experiment in a line: Agonist activity at LXR in human U87 cells overexpressing EGFR variant III assessed as up regulation of SREBP1c mRNA expression measured after 48 hrs by SYBR green staining based qRT-PCR analysis. As to conditions: filed as agonist. The data set is classed as cell-based.
For data set [20], the system named is U87. Nature of the data set: Agonist activity at LXR in human U87 cells overexpressing EGFR variant III assessed as up regulation of IDOL mRNA expression measured after 48 hrs by SYBR green staining based qRT-PCR analysis. The data set is classed as cell-based. As to conditions: filed as agonist. For orientation: Real-time PCR tracks product formation cycle by cycle.

Data set [21] has as its system U-87 MG. Nature of the data set: Antiproliferative activity against LXRbeta knock-down human U87 cells overexpressing EGFR variant III measured after 7 days by CCK8 assay. In kind it is functional, cell-based. To be noted: U-87MG ATCC, time 7.0 day.
Data set [22] has as its system U87. Nature of the data set: Agonist activity at LXR in human U87 cells overexpressing EGFR variant III assessed as up regulation of ABCA1 mRNA expression measured after 48 hrs by SYBR green staining based qRT-PCR analysis. In kind it is cell-based. As to conditions: filed as agonist.
[23] abbreviates: Homo sapiens, U-87 MG, 168 h, read-out: IC50.

`CC(C)(C)CC(=O)N1CC[C@@]2(C(=O)Nc3ccccc32)[C@@H]1c1cccc(-c2ccc(CO)c(S(C)(=O)=O)c2)c1`: the IC50 result in [1] (u-87mg atcc) is reported as “Not Active”.

Regarding `CC(C)(C)OC(=O)N1CC[C@]2(C(=O)Nc3ccccc32)[C@H]1c1cccc(-c2cc(F)c(CO)c(S(C)(=O)=O)c2)c1`, the IC50 in [1] (setting [23]) is 7.78 µM.

For the compound `CC(C)(C)OC(=O)N1CC[C@@]2(C(=O)Nc3ccccc32)[C@@H]1c1cccc(-c2cc(F)c(CO)c(S(C)(=O)=O)c2)c1`, the IC50 entry in data set [1] (u-87mg atcc) is “Not Active”.

Regarding `COC(=O)c1ccc(-c2cccc([C@@H]3N(C(=O)OC(C)(C)C)CC[C@@]34C(=O)Nc3ccccc34)c2)cc1S(C)(=O)=O`, in data set [1] (u-87mg atcc), the IC50 entry is on record as “Not Active”.

`CC(C)(C)OC(=O)N1CC[C@]2(C(=O)Nc3ccccc32)[C@H]1c1cccc(-c2ccc(CO)cc2)c1`: in [1] (u-87mg atcc), the IC50 entry is reported as “Not Active”.

Turning to `CC(C)(C)OC(=O)N1CCC2(C(=O)Nc3ccccc32)C1c1cccc(Nc2ccc(CO)c(S(C)(=O)=O)c2)c1` (racemic), the Activity entry in data set [2] and in [7] was “Non-Toxic” throughout. This compound came in with an AUC(0-t) at 24 h in data set [3] of 1250 ng·h/mL. For the same compound, in data set [4], the AUC(0-inf) was determined as 1410 ng·h/mL. In addition, the IC50 in data set [1] (setting [23]) was determined as 3.75 µM. Also, in [5], the outcome was Active. The Tmax in data set [6] came out at 0.22 h. This compound also gave a half-life in data set [8] of 2.98 h. This compound also returned a Cmax in [9] of 1010 ng/mL. This compound also yielded an MRT inf in data set [10] of 3.48 h.

Consider `CC(C)(C)OC(=O)N1CCC2(C(=O)Nc3ccccc32)C1c1cccc(-c2ccc(CO)c(S(C)(=O)=O)c2)c1` (centres undefined), for which the IC50 in [1] (setting [23]) was 7.05 µM.

Regarding `CN(C)C(=O)c1ccc(-c2cccc([C@H]3N(C(=O)OC(C)(C)C)CC[C@]34C(=O)Nc3ccccc34)c2)cc1Cl`, the IC50 result in [1] (u-87mg atcc) is given as “Not Active”.

As for `COC(=O)c1ccc(-c2cccc([C@H]3N(C(=O)OC(C)(C)C)CC[C@]34C(=O)Nc3ccccc34)c2)cc1S(C)(=O)=O`, the IC50 in [1] (setting [23]) came to 7.53 µM.

With `CC(C)(C)OC(=O)N1CCC2(C(=O)Nc3ccccc32)C1c1cccc(-c2cc(F)c(CO)c(S(C)(=O)=O)c2)c1` (centres undefined), the IC50 in data set [1] (setting [23]) worked out at 8.49 µM.

Regarding `CC(C)(C)OC(=O)N1CC[C@]2(C(=O)Nc3ccccc32)[C@H]1c1cccc(-c2ccc(CO)c(S(C)(=O)=O)c2)c1`, in [1] (setting [23]), the IC50 was found to be 6.36 µM.

On to `Fc1ccc(-c2c3cccc(C(F)(F)F)c3nn2Cc2ccc(F)cc2Cl)cc1` [LXR-623], for which the IC50 in data set [11] was determined as 8.3 µM; in data set [1] (setting [23]), 6.14 µM; in [14], 3.06 µM. In addition, the EC50 was determined as 0.000431 µM in [12] and 0.000212 µM in data set [13]. In addition, in data set [7], the Activity entry was “Toxic”.

Turning to `CC(C)(C)OC(=O)N1CC[C@@]2(C(=O)Nc3ccccc32)[C@@H]1c1cccc(-c2ccccc2)c1`, the 50% inhibitory concentration (IC50) result in [1] (u-87mg atcc) was “Not Active”.

In the case of `CC(C)(C)OC(=O)N1CCC2(C(=O)Nc3ccccc32)C1c1cccc(-c2ccccc2)c1` (centres undefined), the IC50 in data set [1] (setting [23]) came out at 22.6 µM.

With `CC(C)(C)OC(=O)N1CC[C@@]2(C(=O)Nc3ccccc32)[C@@H]1c1cccc(-c2ccc(CO)c(S(C)(=O)=O)c2)c1`, the IC50 entry in data set [1] (u-87mg atcc) is reported as “Not Active”.

In the case of `CC(C)(C)OC(=O)N1CC[C@]2(C(=O)Nc3ccccc32)[C@H]1c1cccc(-c2cccc(S(C)(=O)=O)c2)c1`, the IC50 result in data set [1] (u-87mg atcc) is on record as “Not Active”.

`CC(C)(C)OC(=O)N1CC[C@@]2(C(=O)Nc3ccccc32)[C@@H]1c1cccc(Nc2ccc(CO)c(S(C)(=O)=O)c2)c1`: the IC50 result in [1] (u-87mg atcc) was “Not Active”.

On to `COC(=O)c1ccc(-c2cccc(C3N(C(=O)OC(C)(C)C)CCC34C(=O)Nc3ccccc34)c2)cc1S(C)(=O)=O` (centres undefined), for which the IC50 in data set [1] (setting [23]) turned out to be 13.3 µM.

Take `CC(C)(C)CC(=O)N1CCC2(C(=O)Nc3ccccc32)C1c1cccc(-c2ccc(CO)c(S(C)(=O)=O)c2)c1` (centres undefined): the IC50 result in [1] (u-87mg atcc) is on record as “Not Active”.

With `O=C(O)Cc1cccc(OCCCN(Cc2cccc(C(F)(F)F)c2Cl)CC(c2ccccc2)c2ccccc2)c1`, the EC50 came to 0.000401 µM in data set [12] and 0.000228 µM in data set [13]. For the same compound, in data set [1] (setting [23]), the IC50 is 3.65 µM. The Activity entry in [7] is reported as “Toxic”.

Consider `CC(C)(C)CC(=O)N1CC[C@]2(C(=O)Nc3ccccc32)[C@H]1c1cccc(-c2ccc(CO)c(S(C)(=O)=O)c2)c1`, for which, in data set [1] (u-87mg atcc), the IC50 result was “Not Active”.

With `CC(C)(C)OC(=O)N1CC[C@]2(C(=O)Nc3ccccc32)[C@H]1c1cccc(Nc2ccc(CO)c(S(C)(=O)=O)c2)c1`, the Activity result in data set [15] was “Non-Toxic”; in data set [16], “Dose-dependent effect”; in [17], “Non-Toxic”; in [18] it was “Dose-dependent effect”; in [19], “Dose-dependent effect”; in data set [20], “Dose-dependent effect”. Besides, in [22], the Activity entry is “Dose-dependent effect”. Besides, the IC50 in [11] was found to be 6.03 µM; in data set [1] (setting [23]) it was 1.78 µM; in [14], 2.23 µM. In addition, in data set [21], the result was inactive.

The IC50 is the concentration that inhibits the measured activity by half. Broadly, the AUC(0-t) is exposure summed from dosing to a finite time, without extrapolation to infinity. By AUC(0-inf) is commonly meant total exposure, with the tail of the curve extrapolated. A high value points to more exposure. A word on the Tmax: it is the time at which the peak concentration occurs. One may read the half-life as the time in which the quantity being followed falls by half. Low readings indicate fast loss, high ones slow loss. In general, Cmax refers to the maximum level reached in the sampled fluid or tissue. Usually MRT inf stands for a mean duration of stay, worked out from the concentration-time curve. As usually defined, the EC50 is the midpoint of the concentration-response curve.
